Results: patent publication US5726188A, “Optically active imidazolidinone derivatives and processes for preparing them” (Kyorin Pharmaceutical Co., Ltd., priority 1993, dated 1998)

Tests used:
[1] = target: T1, M1 type muscarinic cholinergic receptor (Rattus norvegicus, UniProt P08482); assay: Radioligand binding to M1 type muscarinic cholinergic receptor ([^3 H]-pirenzepine); details: for IC50: rat brain (except cerebellum and brain stem) crude synaptic membrane, [^3 H]-PZ 1 nM, 60 minutes, 25 °C
T1 construct: crude synaptic membrane specimen prepared from all brains (except cerebellum and brain stem) of rat; from tissue; host or cells: rat brain without cerebellum and brain stem, crude synaptic membranes
T1 sequence (P08482 1-460): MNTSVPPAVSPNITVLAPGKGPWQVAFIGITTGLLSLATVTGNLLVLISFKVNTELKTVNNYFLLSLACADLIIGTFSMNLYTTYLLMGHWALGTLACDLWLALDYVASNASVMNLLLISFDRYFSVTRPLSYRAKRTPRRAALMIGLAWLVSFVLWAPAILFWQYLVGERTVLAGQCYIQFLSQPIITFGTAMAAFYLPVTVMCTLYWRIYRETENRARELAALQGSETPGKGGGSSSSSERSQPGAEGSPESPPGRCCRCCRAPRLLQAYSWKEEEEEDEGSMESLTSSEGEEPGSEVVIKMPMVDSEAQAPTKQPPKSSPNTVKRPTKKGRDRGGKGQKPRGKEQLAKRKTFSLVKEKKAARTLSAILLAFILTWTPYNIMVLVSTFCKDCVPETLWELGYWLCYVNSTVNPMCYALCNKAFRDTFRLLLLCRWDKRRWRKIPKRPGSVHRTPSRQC
Experimental: 1) Radioligand binding experiment to M1 type muscarinic cholinergic receptor
Method: To a crude synaptic membrane specimen prepared from all brains (except cerebellum and brain stem) of rat, [^3 H]-pirenzepine ([^3 H]-PZ, final oncentration: 1 nM) and testing compound were added and the mixture was incubated for 60 minutes at 25 ° C. After stopped the reaction by high-speed suction filtration, the radioactivity on filter was measured with liquid scintillation counter. The specific binding level of [^3 H]-pirenzepine was determined by subtracting the nonspecific binding level in the presence of atropine (1 μM) from total binding level. Putting the [^3 H]-pirenzepine binding in the absence of testing compound on 100, the concentration of compound to decrease by 50 % (IC50 value) was made an index of the binding activity of compound to M1 muscarinic receptor (refer to: J. A. D. M. Toner et al, Life Science, 1987, 40, 1981-1987).

[2] = target: T2, M2 type muscarinic cholinergic receptor (Rattus norvegicus, UniProt P10980); assay: Radioligand binding to M2 type muscarinic cholinergic receptor ([^3 H]-quinuclidyl benzoate); details: rat brain stem crude synaptic membrane, [^3 H]-QNB 0.1 nM
T2 construct: crude synaptic membrane specimen was prepared from the brain stem (medulla oblongata-pons) of rat; from tissue; host or cells: rat brain stem (medulla oblongata-pons), crude synaptic membranes
T2 sequence (P10980 1-466): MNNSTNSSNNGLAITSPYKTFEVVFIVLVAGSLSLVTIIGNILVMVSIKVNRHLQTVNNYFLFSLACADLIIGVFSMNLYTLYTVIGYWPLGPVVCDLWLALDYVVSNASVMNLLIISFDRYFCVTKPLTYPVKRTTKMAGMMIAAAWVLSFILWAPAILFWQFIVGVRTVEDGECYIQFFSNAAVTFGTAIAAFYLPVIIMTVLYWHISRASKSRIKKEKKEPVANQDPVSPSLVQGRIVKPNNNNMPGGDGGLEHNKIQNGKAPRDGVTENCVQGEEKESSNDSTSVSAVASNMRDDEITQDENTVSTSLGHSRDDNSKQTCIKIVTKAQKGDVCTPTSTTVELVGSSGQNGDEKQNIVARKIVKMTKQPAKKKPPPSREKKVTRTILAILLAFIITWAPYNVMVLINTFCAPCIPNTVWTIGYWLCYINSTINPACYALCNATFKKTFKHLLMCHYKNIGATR

[3] = system: pirenzepine-induced amnesia; assay: Pirenzepine-induced amnesia, step-through type passive avoidance; type: in vivo, Std:ddY strain male mice; details: oral; for Reaction latency Mean ± S.E.: 30 or 60 minutes before acquisition trial, pirenzepine-treated mice; for Improvement rate: pirenzepine-induced amnesia
From the text: Testing on the pirenzepine-induced amnesia
For the experiment animals, Std:ddY strain male mice with body weight of 24 to 34 g (age in week: 5-6) (Nippon SLC) were used. For the device, a step-through type passive avoidance apparatus (made by Ohara Medical Co., Ltd.) consisting of two […] and dark rooms was used. In the acquisition trial, mouse was placed in the light room and, 10 seconds later, the partitive guillotine door was opened. As soon as the mouse moved into the dark room, the guillotine door was closed and electric shock of 41 to 45 V was given for 1 second through the metal grid bars of the floor. The retention trial was conducted 24 hours later since then. […] The induction of amnesia was performed by fixing a mouse at prone position without anesthetization at 20 minutes before learning acquisition trial and injecting pirenzepine (10 μg/2 μl/mouse bilaterally into cerebral ventricles using a microsyringe. Moreover, a group not to administered with pirenzepine before acquisition trial (non-amnesia comparison group) was also provided. The mice were made to be 12 to 21 animals per group and the testing compound was administered orally at 30 or 60 minutes before acquisition trial. The improvement rate was calculate according to following equation and the results are shown in Table 5 (refer to: M. P. Callfield et at, J. Pharm. Pharmacol. 1983, 35, 131-132). [formula]
The extension of the reaction latency with compound therefore means the improved amnesia.

[4] = system: Std:ddY strain male mice; assay: In vivo toxicity test, oral administration; details: for common symptoms and death / Convulsion (animals affected) / Death (animals) / dose at which convulsion was observed / dose at which death was observed: 3 days
Experimental: For the experiment animals, 4 animals per group of Std:ddY strain male mice with body weightOf 26 to 30 g (age in week: 5) (Nippon SLC) were used. The testing compound was suspended into 5 % solution of arabic gum and administered orally. The common symptoms and death caused with compound were recorded for 3 days after administration.

[5] = system: M1 and M2 muscarinic receptors; assay: Selectivity to M1 receptor (ratio of IC50 values from the M1 and M2 binding experiments); set-up: species or system rat
Experimental: 3) Selectivity to M1 receptor
This was determined from the ratio of IC50 values of compound obtained from the binding experiments of M1 and M2 muscarinic receptors. [formula]

Structure (SMILES) | IC50 [1] [nM] | IC50 [2] [nM] | Reaction latency Mean ± S.E. ([3]; 3 mg/kg) [s] | Improvement rate ([3]; 3 mg/kg) [%] | Reaction latency Mean ± S.E. ([3]; 10 mg/kg) [s] | Improvement rate ([3]; 10 mg/kg) [%] | common symptoms (in words) [4] | common symptoms and death ([4]; 300 mg/kg) | dose at which convulsion was observed [4] [mg/kg] | dose at which death was observed [4] [mg/kg] | Reaction latency Mean ± S.E. ([3]; 30 mg/kg) [s] | Improvement rate ([3]; 30 mg/kg) [%] | also measured
O=C1N(c2ccc(F)cc2)CCN1C1CCCN(Cc2ccccc2)C1 (racemic) [Referential example 8, (±)-1-(4-fluorophenyl)-3-[3-(1-phenylmethyl)piperidyl]-2-imidazolidinone] | 80 | 1090 | 55.1 ± 20.0 | -20.7 | 153.7 ± 27.6 | 33.2 | convulsive actions were seen | None | 600 | 1200 | – | – | Convulsion (animals affected) ([4]; 600 mg/kg): 3/4; Death (animals) ([4]; 1200 mg/kg): 4/4
O=C1N(c2ccc(F)cc2)CCN1[C@@H]1CCCN(Cc2ccccc2)C1 [Example 1, (R)-1-(4-florophenyl)-3-[3-(1-phenylmethyl)piperidyl]-2-imidazolidinone] | 30 | 500 | 91.5 ± 21.4 | 34.3 | 133.0 ± 29.3 | 77.9 | – | None | – | – | 166.9 ± 40.2 | 113.6 | affinity to the central M1 muscarinic receptor (in words) [1]: patent affinity to the central M1 muscarinic receptor; in vitro muscarine (M1) activity / affinity relative to S form (Referential example 9) ([1]; compared with S isomer): about 120 times; in vitro muscarine (M1) activity / affinity relative to racemic form (Referential example 8) ([1]; compared with racemic form): about 3 times; selectivity to M1 receptor (in words) ([5]; M1 versus M2 receptor): far higher selectivity to M1 receptor than to M2 receptor; IC50 (M2)/IC50 (M1) ([5]; ratio of IC50 values, selectivity to M1 receptor): 16.7; improvement effect on the amnesia / disturbance of learning (in words) ([3]; listed as R form): could be recognized only for R form with significant difference; improvement effect on the amnesia / disturbance of learning (in words) ([3]; listed as R isomer): very excellent improvement effect on the amnesia; common symptoms and death ([4]; 600 mg/kg): None; common symptoms and death ([4]; 1200 mg/kg): None; common symptoms and death ([4]; 1200 mg/kg, listed as R form): problems did not arise at any rate; common symptoms and death ([4]; 1200 mg/kg, listed as compound of the invention): such symptom was not caused even at 1200 mg/kg
O=C1N(c2ccc(F)cc2)CCN1[C@H]1CCCN(Cc2ccccc2)C1 [Referential example 9, (S)-1-(4-fluorophenyl)-3-[3-(1-phenylmethyl)piperidyl]-2-imidazolidinone] | 3700 | > 10000 | 63.3 ± 32.1 | -23.5 | 61.5 ± 26.5 | -25.0 | convulsive actions were seen | – | ≥ 300 | ≥ 300 | 113.2 ± 36.2 | 18.1 | Convulsion (animals affected) ([4]; 300 mg/kg): 2/4; Death (animals) ([4]; 300 mg/kg): 1/4; Death (animals) ([4]; 600 mg/kg): 4/4
